According to PubChem BioAssay AID330 (DTP/NCI, 2004):
“And” between values parts separate entries of the source, which are not always exact repeats. Equal entries are not always repeated. Inconclusive results and toxic doses are left out. The calls were made as follows: active = survival T/C of 150% or more; inactive = T/C below 125% in these data. Numbered stars: 1 amine (or outer) side, 2 acyl side, 3 side chain; on linkers, the order of the positions; unused ones are H or OH. Square brackets hold non-standard residues; d marks the D form. Peptide text beside a SMILES is read from it. * marks the point of attachment. ξ: configuration not given here. X4 = CCC(=O)CC(O)CC(C)CC(N[*:1])C(=O)[*:2]; ξLeu(3ξ-OH) = CC(C)C(O)C(N)C(=O)O; ξPro(4ξ-Me) = CC1CNC(C(=O)O)C1; X3 = CCC(C)/C=C/C(=O)*; Aib = CC(C)(N)C(=O)O; X5 = CC(CN(C)C)N*; βAla = NCCC(=O)O

Test system: P388 leukemia ip, CD2F1 mice, survival T/C
Experiment: NCI In Vivo Anticancer Drug Screen. Data for tumor model P388 Leukemia (intraperitoneal) in CD2F1 (CDF1) mice
Conditions: endpoint: median survival time, higher = longer survival
Method in brief: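 Mice carrying the transplanted tumor received test compound or vehicle. Survival was recorded in each group, and the value is the treated-group measurement divided by that of the vehicle-treated control group.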

[1] = dose: 50.0 mg/kg/injection, schedule: Q01DX005 (ip), vehicle: saline
[2] = dose: 100.0 mg/kg/injection, schedule: Q01DX005 (ip), vehicle: saline
[3] = dose: 200.0 mg/kg/injection, schedule: Q01DX005 (ip), vehicle: saline
[4] = dose: 50.0 mg/kg/injection, schedule: Q01DX009 (ip), vehicle: saline with Tween-80
[5] = dose: 100.0 mg/kg/injection, schedule: Q01DX009 (ip), vehicle: saline with Tween-80
[6] = dose: 200.0 mg/kg/injection, schedule: Q01DX009 (ip), vehicle: saline with Tween-80
[7] = dose: 60.0 mg/kg/injection, schedule: Q01DX005 (ip), vehicle: saline with Tween-80
[8] = dose: 120.0 mg/kg/injection, schedule: Q01DX005 (ip), vehicle: saline with Tween-80
[9] = dose: 240.0 mg/kg/injection, schedule: Q01DX005 (ip), vehicle: saline with Tween-80
[10] = dose: 50.0 mg/kg/injection, schedule: Q01DX009 (ip), vehicle: saline

Measured: T/C

CC1(C)O[C@H]2CC(=O)OC[C@@]23[C@H]1CC(=O)[C@@]1(C)C2=CCC(c4ccoc4)[C@]2(C)CC[C@@H]13 (stereo not given in full)
inactive: dose: 3.12 mg/kg/injection, schedule: Q01DX005 (ip), vehicle: distilled water + Tween-80 95 % of control | dose: 6.25 mg/kg/injection, schedule: Q01DX005 (ip), vehicle: distilled water + Tween-80 99 % of control | dose: 12.5 mg/kg/injection, schedule: Q01DX005 (ip), vehicle: distilled water + Tween-80 102 % of control | dose: 25.0 mg/kg/injection, schedule: Q01DX005 (ip), vehicle: distilled water + Tween-80 116 % of control | dose: 50.0 mg/kg/injection, schedule: Q01DX005 (ip), vehicle: distilled water + Tween-80 92 % of control

CC(O)C(=O)NCCO (stereo not given)
inactive: [1] 99 % of control | [2] 93 % of control | [3] 100 % of control

CCC(=O)CC(O)CC(C)CC(NC(=O)C1CC(C)CN1C(=O)/C=C/C(C)CC)C(=O)NC(C(=O)NC(C)(C)C(=O)NC(CC(C)C)C(=O)NC(CC(C)C)C(=O)NC(C)(C)C(=O)NC(C)(C)C(=O)NCCC(=O)NC(C)CN(C)C)C(O)C(C)C (stereo not given) (X3-[ξPro(4ξ-Me)][X4][ξLeu(3ξ-OH)][Aib]LL[Aib][Aib][βAla]-X5; configuration not given here)
inactive: dose: 50.0 micrograms/kg/injection, schedule: Q01DX005 (ip), vehicle: saline + alcohol 101 % of control | dose: 100.0 micrograms/kg/injection, schedule: Q01DX005 (ip), vehicle: saline + alcohol 101 % of control | dose: 200.0 micrograms/kg/injection, schedule: Q01DX005 (ip), vehicle: saline + alcohol 101 % of control | dose: 400.0 micrograms/kg/injection, schedule: Q01DX005 (ip), vehicle: saline + alcohol 111 % of control | dose: 800.0 micrograms/kg/injection, schedule: Q01DX005 (ip), vehicle: saline + alcohol 110 % of control

Cc1ccc(N=C(Cl)Nc2ccc(C)cc2)cc1
inactive: [4] 105 % of control | [5] 108 % of control | [6] 98 % of control

CCOc1cc2c(Cl)ncnc2c(OCC)c1OCC
inactive: [4] 105 % of control | [5] 91 % of control | [6] 106 % of control

O=COCC1(c2ccncc2)OCCO1
inactive: [1] 108 % of control | [2] 107 % of control | [3] 99 % of control

C[C-]=O.C[C-]=O.[C-]#[O+].[C-]#[O+].[C-]#[O+].[C-]#[O+].[Re]
inactive: dose: 12.5 mg/kg/injection, schedule: Q01DX005 (ip), vehicle: Klucel (hydroxypropylcellulose) (HPC) 101 % of control | dose: 25.0 mg/kg/injection, schedule: Q01DX005 (ip), vehicle: Klucel (hydroxypropylcellulose) (HPC) 96 % of control | dose: 50.0 mg/kg/injection, schedule: Q01DX005 (ip), vehicle: Klucel (hydroxypropylcellulose) (HPC) 93 % of control

CCCCCC(O)C1C(=O)OC(C)C(O)/C=C/C=C/C=C/C=C\C=C(\C)C(O)CC(O)CC(O)CC(O)CC(O)CC(O)CC1O (stereo not given)
inactive: dose: 10.0 mg/kg/injection, schedule: Q04DX003 (ip), vehicle: other 104 % of control | dose: 20.0 mg/kg/injection, schedule: Q04DX003 (ip), vehicle: other 95 % of control | dose: 50.0 mg/kg/injection, schedule: Q01DX005 (ip), vehicle: saline with Tween-80 108 % of control | dose: 100.0 mg/kg/injection, schedule: Q01DX005 (ip), vehicle: saline with Tween-80 107 % of control | dose: 200.0 mg/kg/injection, schedule: Q01DX005 (ip), vehicle: saline with Tween-80 103 % of control

O=c1oc2nc3ccc(Cl)cc3c(=O)n2c2ccc(Cl)cc12
inactive: dose: 50.0 mg/kg/injection, schedule: Q01DX009 (ip), vehicle: Klucel (hydroxypropylcellulose) (HPC) 108 % of control | dose: 100.0 mg/kg/injection, schedule: Q01DX009 (ip), vehicle: Klucel (hydroxypropylcellulose) (HPC) 118 % of control | dose: 200.0 mg/kg/injection, schedule: Q01DX009 (ip), vehicle: Klucel (hydroxypropylcellulose) (HPC) 104 % of control

CCNC(=O)c1c(C)nc(-c2ccccc2)nc1Nc1ccc(OCC)cc1
inactive: [7] 98 % of control | [8] 98 % of control | [9] 103 % of control

CCCCN1CS[C@@H]2CCCC[C@H]21
inactive: dose: 21.0 mg/kg/injection, schedule: Q01DX005 (ip), vehicle: Klucel (hydroxypropylcellulose) (HPC) 104 % of control | dose: 42.0 mg/kg/injection, schedule: Q01DX005 (ip), vehicle: Klucel (hydroxypropylcellulose) (HPC) 113 % of control | dose: 84.0 mg/kg/injection, schedule: Q01DX005 (ip), vehicle: Klucel (hydroxypropylcellulose) (HPC) 116 % of control

O=N[O-].[Co].[NH2-].[NH2-].[NH2-].[NH2-].[NH2-]
inactive: dose: 12.5 mg/kg/injection, schedule: Q01DX009 (ip), vehicle: saline 90 % of control | dose: 25.0 mg/kg/injection, schedule: Q01DX009 (ip), vehicle: saline 95 % of control | [10] 95 % of control

CCO/C([O-])=C(/C(=N/S(=O)(=O)c1ccc(C)cc1)SC)[n+]1ccccc1
inactive: dose: 25.0 mg/kg/injection, schedule: Q04DX002 (ip), vehicle: saline with Tween-80 100 % of control | dose: 50.0 mg/kg/injection, schedule: Q04DX002 (ip), vehicle: saline with Tween-80 99 % of control | dose: 100.0 mg/kg/injection, schedule: Q04DX002 (ip), vehicle: saline with Tween-80 99 % of control

CC1=CC2N(C=C1)C(c1ccccc1)=NON2c1cc(C)ccn1 (stereo not given)
inactive: dose: 7.5 mg/kg/injection, schedule: Q01DX005 (ip), vehicle: saline with Tween-80 91 % of control | dose: 15.0 mg/kg/injection, schedule: Q01DX005 (ip), vehicle: saline with Tween-80 94 % of control | dose: 30.0 mg/kg/injection, schedule: Q01DX005 (ip), vehicle: saline with Tween-80 91 % of control

COC(=O)C1(C2(C(=O)OC)NC(=S)NC(=O)C2C#N)CCCC1=O (stereo not given)
inactive: [7] 108 % of control | [8] 105 % of control | [9] 105 % of control

COc1c(C)cc(C)c(CBr)c1-c1c(CBr)c(C)cc(C)c1OC
inactive: dose: 100.0 mg/kg/injection, schedule: Q01DX001 (ip), vehicle: Klucel (hydroxypropylcellulose) (HPC) 95 % of control | dose: 200.0 mg/kg/injection, schedule: Q01DX001 (ip), vehicle: Klucel (hydroxypropylcellulose) (HPC) 93 % of control | dose: 400.0 mg/kg/injection, schedule: Q01DX001 (ip), vehicle: Klucel (hydroxypropylcellulose) (HPC) 88 % of control

CCN1C(=O)C(=O)c2ccccc21
inactive: dose: 18.75 mg/kg/injection, schedule: Q01DX009 (ip), vehicle: saline with Tween-80 96 % of control | dose: 18.75 mg/kg/injection, schedule: Q01DX009 (ip), vehicle: saline 107 % of control | dose: 37.5 mg/kg/injection, schedule: Q01DX009 (ip), vehicle: saline with Tween-80 96 % of control | dose: 37.5 mg/kg/injection, schedule: Q01DX009 (ip), vehicle: saline 102 % of control and 110 % of control | dose: 75.0 mg/kg/injection, schedule: Q01DX009 (ip), vehicle: saline with Tween-80 100 % of control | dose: 75.0 mg/kg/injection, schedule: Q01DX009 (ip), vehicle: saline 104 % of control and 105 % of control

CCC(Br)C(=O)SC(C)(C)C (stereo not given)
inactive: dose: 100.0 mg/kg/injection, schedule: Q04DX003 (ip), vehicle: saline with Tween-80 111 % of control | dose: 200.0 mg/kg/injection, schedule: Q04DX003 (ip), vehicle: saline with Tween-80 106 % of control

FC(F)(F)c1ccccc1N=Cc1cccs1
inactive: [10] 113 % of control | dose: 100.0 mg/kg/injection, schedule: Q01DX009 (ip), vehicle: saline 103 % of control | dose: 200.0 mg/kg/injection, schedule: Q01DX009 (ip), vehicle: saline 104 % of control

CCOC(=O)C(C)(C)Oc1ccc(Cl)cc1
inactive: [4] 100 % of control | [5] 93 % of control | [6] 112 % of control

O=P(O)(O)CCCNO
inactive: dose: 60.0 mg/kg/injection, schedule: Q01DX005 (ip), vehicle: saline 95 % of control | dose: 120.0 mg/kg/injection, schedule: Q01DX005 (ip), vehicle: saline 91 % of control | dose: 240.0 mg/kg/injection, schedule: Q01DX005 (ip), vehicle: saline 90 % of control

CN(C)C(=O)c1nc(CNC(=O)CN)n(-c2ccc(Cl)cc2C(=O)c2ccccc2)n1
inactive: dose: 60.0 mg/kg/injection, schedule: Q01DX005 (ip), vehicle: Klucel (hydroxypropylcellulose) (HPC) 103 % of control | dose: 120.0 mg/kg/injection, schedule: Q01DX005 (ip), vehicle: Klucel (hydroxypropylcellulose) (HPC) 100 % of control

CC1CN=C(c2ccc(NC(=O)c3ccc(NC(=O)c4ccc(C5=NCC(C)N5)cc4)cc3)cc2)N1 (stereo not given)
inactive: dose: 6.25 mg/kg/injection, schedule: Q01DX005 (ip), vehicle: saline with Tween-80 119 % of control and 123 % of control | dose: 12.5 mg/kg/injection, schedule: Q01DX005 (ip), vehicle: saline with Tween-80 110 % of control
